Measurements as given in patent US20260042764A1, “COMPOSITIONS AND METHODS FOR INHIBITION OF KRAS” (TheRas, Inc., priority 2022, published 2026).

system: GP2d cells (KRAS G12D); experiment: Cell-based pERK HTRF assay in GP2d cell (Biological Example 2); conditions: GP2d, GP2d (KRAS G12D) cells, pERK HTRF
Outline: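 Treatment with test compounds lasted one hour in DMEM containing 10% FBS, with DMSO held at 0.25%. Dilution series: 9 points, half-log spacing, highest 1 μM or 100 nM. Lysates were incubated 4–24 h at room temperature with antibody mix, then HTRF was read at 320 nm excitation.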

Structure (SMILES)	IC50 [nM]
CN(C)C(=O)c1nc2c(s1)CN(c1nc(OCC34CCCN3CC(F)C4)nc3c(F)c(-c4ccc(F)c5sc(N)c(C#N)c45)c(C(F)(F)F)cc13)CC2 (stereo not drawn) [Compound 404]	< 100
CCC(=O)N1CC[C@@H](N(CC)c2nc(OC[C@@]34CCCN3C[C@H](F)C4)nc3c(F)c(-c4ccc(F)c5sc(N)c(C#N)c45)c(C(F)(F)F)cc23)[C@H]1C [Compound 405]	< 100
CCN(c1nc(OC[C@@]23CCCN2C[C@H](F)C3)nc2c(F)c(-c3ccc(F)c4sc(N)c(C#N)c34)c(C(F)(F)F)cc12)[C@@H]1CCN(C(=O)C2CC2)[C@@H]1C [Compound 406]	< 100
C[C@@H]1[C@H](N(C)c2nc(OC[C@@]34CCCN3C[C@H](F)C4)nc3c(F)c(-c4ccc(F)c5sc(N)c(C#N)c45)c(Cl)cc23)CCN1C(=O)C(F)F [Compound 408]	< 100
C[C@@H]1[C@H](N(C)c2nc(OC[C@@]34CCCN3C[C@H](F)C4)nc3c(F)c(-c4ccc(F)c5sc(N)c(C#N)c45)c(C(F)(F)F)cc23)CCN1C(=O)N(C)C [Compound 409]	< 100
COC(=O)N1CC[C@@H](N(C)c2nc(OC[C@@]34CCCN3C[C@H](F)C4)nc3c(F)c(-c4ccc(F)c5sc(N)c(C#N)c45)c(C(F)(F)F)cc23)[C@H]1C [Compound 410]	< 100

molecular target: T1, Avi-KRAS WT (1-169) GppNHp/RAF1 RBD-3xFLAG (52-151) (Homo sapiens, UniProt P01116); experiment: Raf1-KRAS WT-GppNHP disruption HTRF assay (Biological Example 1); format: binding; conditions: KRAS WT-GppNHp/RAF1 RBD HTRF
T1 construct: Avi-KRAS WT (1-169)
Outline: (§1)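 Protein mix, 1 h RT, 700 rpm; reagent mix, 1 h RT, 700 rpm; HTRF read. Buffer Tris pH 7.5/NaCl/MgCl2/BSA/Tween, 10% DMSO. Output % activity, DMSO = 100%.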

T1 sequence (P01116 1-169 isoform P01116-2): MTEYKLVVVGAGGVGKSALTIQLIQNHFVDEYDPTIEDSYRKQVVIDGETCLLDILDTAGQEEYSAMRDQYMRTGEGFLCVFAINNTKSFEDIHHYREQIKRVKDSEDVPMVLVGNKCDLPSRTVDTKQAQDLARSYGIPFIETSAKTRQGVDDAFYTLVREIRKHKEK

Structure (SMILES)	IC50 [nM]
CN(C)C(=O)c1nc2c(s1)CN(c1nc(OCC34CCCN3CC(F)C4)nc3c(F)c(-c4ccc(F)c5sc(N)c(C#N)c45)c(C(F)(F)F)cc13)CC2 (stereo not drawn) [Compound 404]	< 100
CCC(=O)N1CC[C@@H](N(CC)c2nc(OC[C@@]34CCCN3C[C@H](F)C4)nc3c(F)c(-c4ccc(F)c5sc(N)c(C#N)c45)c(C(F)(F)F)cc23)[C@H]1C [Compound 405]	100 to 1000
CCN(c1nc(OC[C@@]23CCCN2C[C@H](F)C3)nc2c(F)c(-c3ccc(F)c4sc(N)c(C#N)c34)c(C(F)(F)F)cc12)[C@@H]1CCN(C(=O)C2CC2)[C@@H]1C [Compound 406]	100 to 1000
C[C@@H]1[C@H](N(C)c2nc(OC[C@@]34CCCN3C[C@H](F)C4)nc3c(F)c(-c4ccc(F)c5sc(N)c(C#N)c45)c(Cl)cc23)CCN1C(=O)C(F)F [Compound 408]	100 to 1000
C[C@@H]1[C@H](N(C)c2nc(OC[C@@]34CCCN3C[C@H](F)C4)nc3c(F)c(-c4ccc(F)c5sc(N)c(C#N)c45)c(C(F)(F)F)cc23)CCN1C(=O)N(C)C [Compound 409]	100 to 1000
COC(=O)N1CC[C@@H](N(C)c2nc(OC[C@@]34CCCN3C[C@H](F)C4)nc3c(F)c(-c4ccc(F)c5sc(N)c(C#N)c45)c(C(F)(F)F)cc23)[C@H]1C [Compound 410]	100 to 1000

molecular target: T2, Avi-KRAS G12D (1-169) GppNHp/RAF1 RBD-3xFLAG (52-151) (Homo sapiens, UniProt P01116, G12D); experiment: Raf1-KRAS G12D-GppNHP disruption HTRF assay (Biological Example 1); format: binding; conditions: KRAS G12D-GppNHp/RAF1 RBD HTRF
T2 construct: Avi-KRAS G12D (1-169)
Outline: as §1

T2 sequence (P01116 1-169 isoform P01116-2 G12D): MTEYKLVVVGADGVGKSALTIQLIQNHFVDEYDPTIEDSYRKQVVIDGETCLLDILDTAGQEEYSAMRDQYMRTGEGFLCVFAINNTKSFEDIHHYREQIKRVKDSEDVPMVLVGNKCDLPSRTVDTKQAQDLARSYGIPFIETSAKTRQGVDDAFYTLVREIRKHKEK

Structure (SMILES)	IC50 [nM]
CN(C)C(=O)c1nc2c(s1)CN(c1nc(OCC34CCCN3CC(F)C4)nc3c(F)c(-c4ccc(F)c5sc(N)c(C#N)c45)c(C(F)(F)F)cc13)CC2 (stereo not drawn) [Compound 404]	1000 to 10000
CCC(=O)N1CC[C@@H](N(CC)c2nc(OC[C@@]34CCCN3C[C@H](F)C4)nc3c(F)c(-c4ccc(F)c5sc(N)c(C#N)c45)c(C(F)(F)F)cc23)[C@H]1C [Compound 405]	100 to 1000
CCN(c1nc(OC[C@@]23CCCN2C[C@H](F)C3)nc2c(F)c(-c3ccc(F)c4sc(N)c(C#N)c34)c(C(F)(F)F)cc12)[C@@H]1CCN(C(=O)C2CC2)[C@@H]1C [Compound 406]	100 to 1000
C[C@@H]1[C@H](N(C)c2nc(OC[C@@]34CCCN3C[C@H](F)C4)nc3c(F)c(-c4ccc(F)c5sc(N)c(C#N)c45)c(Cl)cc23)CCN1C(=O)C(F)F [Compound 408]	100 to 1000
C[C@@H]1[C@H](N(C)c2nc(OC[C@@]34CCCN3C[C@H](F)C4)nc3c(F)c(-c4ccc(F)c5sc(N)c(C#N)c45)c(C(F)(F)F)cc23)CCN1C(=O)N(C)C [Compound 409]	100 to 1000
COC(=O)N1CC[C@@H](N(C)c2nc(OC[C@@]34CCCN3C[C@H](F)C4)nc3c(F)c(-c4ccc(F)c5sc(N)c(C#N)c45)c(C(F)(F)F)cc23)[C@H]1C [Compound 410]	100 to 1000

molecular target: T3, Avi-KRAS G12R (1-169) GppNHp/RAF1 RBD-3xFLAG (52-151) (Homo sapiens, UniProt P01116, G12R); experiment: Raf1-KRAS G12R-GppNHP disruption HTRF assay (Biological Example 1); format: binding; conditions: KRAS G12R-GppNHp/RAF1 RBD HTRF
T3 construct: Avi-KRAS G12R (1-169)
Outline: as §1

T3 sequence (P01116 1-169 isoform P01116-2 G12R): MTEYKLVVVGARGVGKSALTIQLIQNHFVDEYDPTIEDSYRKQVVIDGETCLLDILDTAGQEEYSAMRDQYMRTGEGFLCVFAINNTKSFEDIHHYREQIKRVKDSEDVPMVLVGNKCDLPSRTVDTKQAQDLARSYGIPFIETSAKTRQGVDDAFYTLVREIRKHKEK

Structure (SMILES)	IC50 [nM]
CN(C)C(=O)c1nc2c(s1)CN(c1nc(OCC34CCCN3CC(F)C4)nc3c(F)c(-c4ccc(F)c5sc(N)c(C#N)c45)c(C(F)(F)F)cc13)CC2 (stereo not drawn) [Compound 404]	> 10000
CCC(=O)N1CC[C@@H](N(CC)c2nc(OC[C@@]34CCCN3C[C@H](F)C4)nc3c(F)c(-c4ccc(F)c5sc(N)c(C#N)c45)c(C(F)(F)F)cc23)[C@H]1C [Compound 405]	100 to 1000
CCN(c1nc(OC[C@@]23CCCN2C[C@H](F)C3)nc2c(F)c(-c3ccc(F)c4sc(N)c(C#N)c34)c(C(F)(F)F)cc12)[C@@H]1CCN(C(=O)C2CC2)[C@@H]1C [Compound 406]	100 to 1000
C[C@@H]1[C@H](N(C)c2nc(OC[C@@]34CCCN3C[C@H](F)C4)nc3c(F)c(-c4ccc(F)c5sc(N)c(C#N)c45)c(Cl)cc23)CCN1C(=O)C(F)F [Compound 408]	1000 to 10000
C[C@@H]1[C@H](N(C)c2nc(OC[C@@]34CCCN3C[C@H](F)C4)nc3c(F)c(-c4ccc(F)c5sc(N)c(C#N)c45)c(C(F)(F)F)cc23)CCN1C(=O)N(C)C [Compound 409]	100 to 1000
COC(=O)N1CC[C@@H](N(C)c2nc(OC[C@@]34CCCN3C[C@H](F)C4)nc3c(F)c(-c4ccc(F)c5sc(N)c(C#N)c45)c(C(F)(F)F)cc23)[C@H]1C [Compound 410]	100 to 1000

molecular target: T4, Avi-KRAS G12V (1-169) GppNHp/RAF1 RBD-3xFLAG (52-151) (Homo sapiens, UniProt P01116, G12V); experiment: Raf1-KRAS G12V-GppNHP disruption HTRF assay (Biological Example 1); format: binding; conditions: KRAS G12V-GppNHp/RAF1 RBD HTRF
T4 construct: Avi-KRAS G12V (1-169)
Outline: as §1

T4 sequence (P01116 1-169 isoform P01116-2 G12V): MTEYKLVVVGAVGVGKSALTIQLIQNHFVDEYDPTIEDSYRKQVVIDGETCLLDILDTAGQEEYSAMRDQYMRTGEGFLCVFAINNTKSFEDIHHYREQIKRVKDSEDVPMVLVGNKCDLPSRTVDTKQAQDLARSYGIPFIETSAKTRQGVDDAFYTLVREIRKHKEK

Structure (SMILES)	IC50 [nM]
CN(C)C(=O)c1nc2c(s1)CN(c1nc(OCC34CCCN3CC(F)C4)nc3c(F)c(-c4ccc(F)c5sc(N)c(C#N)c45)c(C(F)(F)F)cc13)CC2 (stereo not drawn) [Compound 404]	1000 to 10000
CCC(=O)N1CC[C@@H](N(CC)c2nc(OC[C@@]34CCCN3C[C@H](F)C4)nc3c(F)c(-c4ccc(F)c5sc(N)c(C#N)c45)c(C(F)(F)F)cc23)[C@H]1C [Compound 405]	100 to 1000
CCN(c1nc(OC[C@@]23CCCN2C[C@H](F)C3)nc2c(F)c(-c3ccc(F)c4sc(N)c(C#N)c34)c(C(F)(F)F)cc12)[C@@H]1CCN(C(=O)C2CC2)[C@@H]1C [Compound 406]	100 to 1000
C[C@@H]1[C@H](N(C)c2nc(OC[C@@]34CCCN3C[C@H](F)C4)nc3c(F)c(-c4ccc(F)c5sc(N)c(C#N)c45)c(Cl)cc23)CCN1C(=O)C(F)F [Compound 408]	1000 to 10000
C[C@@H]1[C@H](N(C)c2nc(OC[C@@]34CCCN3C[C@H](F)C4)nc3c(F)c(-c4ccc(F)c5sc(N)c(C#N)c45)c(C(F)(F)F)cc23)CCN1C(=O)N(C)C [Compound 409]	100 to 1000
COC(=O)N1CC[C@@H](N(C)c2nc(OC[C@@]34CCCN3C[C@H](F)C4)nc3c(F)c(-c4ccc(F)c5sc(N)c(C#N)c45)c(C(F)(F)F)cc23)[C@H]1C [Compound 410]	100 to 1000

system: SW620 cells (KRAS G12V); experiment: Cell-based pERK HTRF assay in SW620 cell (Biological Example 4); conditions: Homo sapiens, SW-620, SW620 (KRAS G12V) cells, pERK HTRF
Outline: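 SW620 seeded in RPMI/10% FBS, next day dosed 4 h (top 1 μM, half-log, 9 pts, 0.25% DMSO). Lysed, pERK by d2/Eu cryptate HTRF, 4–24 h RT, 615 nm read.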

Structure (SMILES)	IC50 [nM]
CN(C)C(=O)c1nc2c(s1)CN(c1nc(OCC34CCCN3CC(F)C4)nc3c(F)c(-c4ccc(F)c5sc(N)c(C#N)c45)c(C(F)(F)F)cc13)CC2 (stereo not drawn) [Compound 404]	< 100
CCC(=O)N1CC[C@@H](N(CC)c2nc(OC[C@@]34CCCN3C[C@H](F)C4)nc3c(F)c(-c4ccc(F)c5sc(N)c(C#N)c45)c(C(F)(F)F)cc23)[C@H]1C [Compound 405]	< 100
CCN(c1nc(OC[C@@]23CCCN2C[C@H](F)C3)nc2c(F)c(-c3ccc(F)c4sc(N)c(C#N)c34)c(C(F)(F)F)cc12)[C@@H]1CCN(C(=O)C2CC2)[C@@H]1C [Compound 406]	< 100
C[C@@H]1[C@H](N(C)c2nc(OC[C@@]34CCCN3C[C@H](F)C4)nc3c(F)c(-c4ccc(F)c5sc(N)c(C#N)c45)c(Cl)cc23)CCN1C(=O)C(F)F [Compound 408]	100 to 1000
C[C@@H]1[C@H](N(C)c2nc(OC[C@@]34CCCN3C[C@H](F)C4)nc3c(F)c(-c4ccc(F)c5sc(N)c(C#N)c45)c(C(F)(F)F)cc23)CCN1C(=O)N(C)C [Compound 409]	< 100
COC(=O)N1CC[C@@H](N(C)c2nc(OC[C@@]34CCCN3C[C@H](F)C4)nc3c(F)c(-c4ccc(F)c5sc(N)c(C#N)c45)c(C(F)(F)F)cc23)[C@H]1C [Compound 410]	< 100
